Experimental data reported in US20080175927A1, “METHOD FOR PREVENTING PLANT DISEASES” (priority 2005, published 2008).
Marks after values point to notes of the source that are not given here.

How the values were obtained:
[1] = system: glomellera cingurata; experiment: Paper disk method, growth inhibition by TLC-purified berberine and derivatives; assay type: cell-based; design: key: ++: strong inhibition; +: moderate inhibition; −: no inhibition; details: purified from TLC
Description: (§1) To confirm antimicrobial activity of berberine and derivative thereof, we collected TLC bands of berberine and derivative thereof and investigated antimicrobial activity of berberine and derivative thereof against known plant pathogens using paper disk method (Ericsson, H., Hogman, C & Wickman. K. 1954, Scandinavian Journal of Clinical Laboratory Investigation 6, Suppl. 11:21-26). […] Therefore, the result of the aforementioned HPLC analysis, ^1H NMR analysis and antimicrobial activity, the active antimicrobial compound exisisting in the extract of Coptis Rhizoma, Phellodendron genus plant, Sanguniaria canadensis, and Chelidonuum majus var. asiaticum was identified as berberine or derivatives thereof.

[2] = system: gray mold rot of strawberry; experiment: as above; assay type: cell-based, Botrytis cinerea; design: key: ++: strong inhibition; +: moderate inhibition; −: no inhibition; details: purified from TLC
Description: as §1

[3] = system: damping-off of cucumber; experiment: as above; assay type: cell-based, Pythium ultimum; design: key: ++: strong inhibition; +: moderate inhibition; −: no inhibition; details: purified from TLC
Description: as §1

[4] = system: Sphaerotheca aphanis var. aphanis; experiment: Preventive test against strawberry powdery mildew, disease incidence rate; assay type: in vivo; details: for PR (prevention rate): 7 days after treatment; for DIR B (disease incident rate 7 days after treatment), I: replicate I; for DIR B (disease incident rate 7 days after treatment), II: replicate II; for DIR B (disease incident rate 7 days after treatment), III: replicate III
Method: To measure prevention effect against powdery mildew of extract of Coptis Rhizoma, Phellodendron amurense, Sanguniaria canadensis and Chelidonuum majus var. asiaticum and berberine and its derivative, we performed a preventive test agaist strawberry powdery mildew resulted from infection of Sphaerotheca aphanis var. aphanis using the standard extract obtained by Example 1 or berberine and derivative thereof. The above extract (30 mL) obtained from 10 g of fresh plant materials was dissolved in 200 μg/ml of Tween 20 solution. Final concentration of berberine and derivatives thereof was 400 μg/ml. Negative control was prepared by adding 250 μg/ml of Tween 20 in distilled water. As a positive control reagent, 30% solution of Rifzol wettable powder (Rifzol W P, Aventis Corp Science, Korea) is used and the Rifzol solution was diluted 1:4000 and treated with amount of 75 μg/ml which is common packing concentration.
In house condition of sandy-loamy soil, disease incidence rate was determined 7 days after treatment of the above mentioned reagents compared to one of non-treatment control and the test was repeated 3 times by randomized Block Design.
Before treatment of the reagents, the disease incidence rate of strawberry powdery mildew was 34.1%. The disease incidence rate is defined as percentage of disease developed plants among total investigated plants.
We investigated preventive effects of standard forms of berberine chloride, berberine iodide and berberine bromide and the standard extract obtained by Example 1 against strawberry powdery mildew at various concentrations according to the method of Example 4. […] When the freeze-dried standard extract obtained by Example 1 was used at concentration of at least 1 μg/ml or preferably 10 μg/ml, it prevented strawberry powdery mildew resulted from an infection of Sphaerotheca aphanis var. aphanis. From the above effect, the present inventors confirmed that the standard extract could substitute for synthetic chemical pesticides.

[5] = extracts 30 mL from 10 g plant, berberine salts 400 μg/ml, Rifzol 75 μg/ml
[6] = mean of I-III, extracts 30 mL from 10 g plant, berberine salts 400 μg/ml, Rifzol 75 μg/ml, negative control 19.0

SMILES	Growth inhibition, glomellera cingurata [1]	Growth inhibition, gray mold rot of strawberry [2]	Growth inhibition, damping-off of cucumber [3]	PR (prevention rate) ([4]; 1 μg/ml)	DIR B (disease incident rate 7 days after treatment), MV (mean value) ([4]; 1 μg/ml, control 35.3)	DIR B (disease incident rate 7 days after treatment), I ([4]; 1 μg/ml)	DIR B (disease incident rate 7 days after treatment), II ([4]; 1 μg/ml)	DIR B (disease incident rate 7 days after treatment), III ([4]; 1 μg/ml)	PR (prevention rate) ([4]; 10 μg/ml)	DIR B (disease incident rate 7 days after treatment), MV (mean value) ([4]; 10 μg/ml, control 35.3)	DIR B (disease incident rate 7 days after treatment), I ([4]; 10 μg/ml)	DIR B (disease incident rate 7 days after treatment), II ([4]; 10 μg/ml)	DIR B (disease incident rate 7 days after treatment), III ([4]; 10 μg/ml)	PR (prevention rate) ([4]; 100 μg/ml)	DIR B (disease incident rate 7 days after treatment), MV (mean value) ([4]; 100 μg/ml, control 35.3)	DIR B (disease incident rate 7 days after treatment), I ([4]; 100 μg/ml)	DIR B (disease incident rate 7 days after treatment), II ([4]; 100 μg/ml)	DIR B (disease incident rate 7 days after treatment), III ([4]; 100 μg/ml)	PR (prevention rate) ([4]; 300 μg/ml)	DIR B (disease incident rate 7 days after treatment), MV (mean value) ([4]; 300 μg/ml, control 35.3)	other results
COc1ccc2cc3[n+](cc2c1OC)CCc1cc2c(cc1-3)OCO2.[Br-] [berberine bromine, berberine bromide]	+	+	+	12.5%	30.9%	29.6%	27.6%	35.4%	47.3%	18.6%	13.5%	17.6%	24.8%	61.5%	13.6%	13.2%	11.7%	15.8%	71.7%	10.0%	DIR B (disease incident rate 7 days after treatment), I ([4]; 300 μg/ml): 8.9%; DIR B (disease incident rate 7 days after treatment), II ([4]; 300 μg/ml): 12.9%; DIR B (disease incident rate 7 days after treatment), III ([4]; 300 μg/ml): 8.3%; PR (prevention rate) ([4]; 1000 μg/ml): 78.8%; DIR B (disease incident rate 7 days after treatment), MV (mean value) ([4]; 1000 μg/ml, control 35.3): 7.5%; DIR B (disease incident rate 7 days after treatment), I ([4]; 1000 μg/ml): 5.9%; DIR B (disease incident rate 7 days after treatment), II ([4]; 1000 μg/ml): 9.4%; DIR B (disease incident rate 7 days after treatment), III ([4]; 1000 μg/ml): 7.2%; PR (prevention rate) [4, 5]: 66.8%; DIR B (disease incident rate 7 days after treatment), MV (mean value) [4, 6]: 6.3%; DIR B (disease incident rate 7 days after treatment), I [4, 5]: 5.2%; DIR B (disease incident rate 7 days after treatment), II [4, 5]: 6.1%; DIR B (disease incident rate 7 days after treatment), III [4, 5]: 6.1%
COc1ccc2cc3[n+](cc2c1OC)CCc1cc2c(cc1-3)OCO2 [berberine chloride]	++	+	++	12.2%	31.0%	30.2%	30.8%	32.1%	38.2%	21.8%	23.4%	22.1%	19.9%	73.7%	9.3%	8.2%	7.7%	12.1%	77.3%	8.0%	DIR B (disease incident rate 7 days after treatment), I ([4]; 300 μg/ml): 5.2%; DIR B (disease incident rate 7 days after treatment), II ([4]; 300 μg/ml): 8.5%; DIR B (disease incident rate 7 days after treatment), III ([4]; 300 μg/ml): 10.3%; PR (prevention rate) ([4]; 1000 μg/ml): 84.7%; DIR B (disease incident rate 7 days after treatment), MV (mean value) ([4]; 1000 μg/ml, control 35.3): 5.4%; DIR B (disease incident rate 7 days after treatment), I ([4]; 1000 μg/ml): 3.4%; DIR B (disease incident rate 7 days after treatment), II ([4]; 1000 μg/ml): 8.7%; DIR B (disease incident rate 7 days after treatment), III ([4]; 1000 μg/ml): 4.2%; PR (prevention rate) [4, 5]: 69.5^c %; DIR B (disease incident rate 7 days after treatment), MV (mean value) [4, 6]: 5.8%; DIR B (disease incident rate 7 days after treatment), I [4, 5]: 5.9%; DIR B (disease incident rate 7 days after treatment), II [4, 5]: 5.1%; DIR B (disease incident rate 7 days after treatment), III [4, 5]: 5.1%
COc1ccc2cc3[n+](cc2c1OC)CCc1cc2c(cc1-3)OCO2.[I-] [berberine iodide]	+	+	+	9.9%	31.8%	30.2%	29.5%	35.8%	35.4%	22.8%	25.8%	23.1%	19.6%	73.1%	9.5%	10.2%	8.9%	9.3%	78.8%	7.5%	DIR B (disease incident rate 7 days after treatment), I ([4]; 300 μg/ml): 6.2%; DIR B (disease incident rate 7 days after treatment), II ([4]; 300 μg/ml): 7.9%; DIR B (disease incident rate 7 days after treatment), III ([4]; 300 μg/ml): 8.4%; PR (prevention rate) ([4]; 1000 μg/ml): 82.2%; DIR B (disease incident rate 7 days after treatment), MV (mean value) ([4]; 1000 μg/ml, control 35.3): 6.3%; DIR B (disease incident rate 7 days after treatment), I ([4]; 1000 μg/ml): 4.3%; DIR B (disease incident rate 7 days after treatment), II ([4]; 1000 μg/ml): 9.3%; DIR B (disease incident rate 7 days after treatment), III ([4]; 1000 μg/ml): 5.2%; PR (prevention rate) [4, 5]: 63.2%; DIR B (disease incident rate 7 days after treatment), MV (mean value) [4, 6]: 7.0%; DIR B (disease incident rate 7 days after treatment), I [4, 5]: 7.1%; DIR B (disease incident rate 7 days after treatment), II [4, 5]: 6.6%; DIR B (disease incident rate 7 days after treatment), III [4, 5]: 6.6%
